How the values were obtained:
Type in all cases: biochemical
KDM4E [1] = biological target: T1, KDM4E (Homo sapiens, UniProt B2RXH2); experiment: Specific hydroxylation activity of KDM4E; conditions: for extent of hydroxylation (in words): KDM4E, relative to H2a(1–20)
T1 construct: KDM4E1–337; made in house; host or cells: E. coli
T1 sequence (B2RXH2 1-337): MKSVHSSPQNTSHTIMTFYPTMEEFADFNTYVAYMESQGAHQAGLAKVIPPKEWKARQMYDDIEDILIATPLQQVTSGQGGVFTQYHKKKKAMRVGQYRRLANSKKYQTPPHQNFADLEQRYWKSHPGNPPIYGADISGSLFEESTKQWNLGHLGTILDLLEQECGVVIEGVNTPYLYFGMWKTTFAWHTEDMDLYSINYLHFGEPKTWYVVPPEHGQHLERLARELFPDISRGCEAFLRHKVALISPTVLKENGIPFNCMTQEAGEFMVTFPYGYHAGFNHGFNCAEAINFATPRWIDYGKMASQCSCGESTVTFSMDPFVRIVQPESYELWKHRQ
Method: (§1) Fig. 3 KDM4E-catalysed hydroxylation occurs at Arg-20 on histone H2a peptide. a LC–MS/MS analysis of H2a(1–20) after KDM4E treatment. Two potential hydroxylation sites, R17 and R20, were identified, with the latter more likely (Supplementary Fig. 9). b Peptide variant studies support Arg-20 hydroxylation; specific activities: H2a(1–20), 0.65 nmol min^−1 mg^−1 SD: 0.073; H2a(1–20) with a C-terminal carboxylic acid (indicated with an -OH), no activity; H2a(1–20)R20A, no activity; H2a(1–20)R20K*, no activity; H2a(1–20)R20Kme3*, 0.44 nmol min^−1 mg^−1 SD: 0.04; H2a(1–20)R3me2a*, 0.51 nmol min^−1 mg^−1 SD: 0.05; H2a(1–20)R3A, 0.37 nmol min^−1 mg^−1 SD: 0.002; H2a(1–21)*, 0.65 nmol min^−1 mg^−1 SD 0.02; H2a(1–25, 0.35 nmol min^−1 mg^−1 SD: 0.044; and H2a(10–29), 0.02 nmol min^−1 mg^−1 SD: 0.013. Measurements employed MALDI–TOF MS except when labelled with*, which employed LC–MS (Supplementary Fig. 10 for representative MS data). n = 3 independent assays. c KDM, RDM and hydroxylation (+16 Da) activities of KDM4E are sequence and context dependent. Histone peptides (H2a, H3, H4) and variants (wild type residue in red, replaced with either K, Kme3, R or Rme2a) were incubated with KDM4E and analysed on MALDI–TOF MS. KDM, RDM and hydroxylation (+16 Da) were detected in some but not all peptides (Supplementary Fig. 10 for representative MS data). (−) No mass changes observed. n = 3 independent assays. See Supplementary Table 6 for conditions. TEXT PRINTED IN THE PICTURE: (c) H2a: K/R replacement K: -; K/R replacement Kme3: KDM/ROH; K/R replacement R: ROH; K/R replacement Rme2a: KDM/ROH | (c) H3: K/R replacement K: -; K/R replacement Kme3: KDM; K/R replacement R: -; K/R replacement Rme2a: RDM | (c) H4: K/R replacement K: -; K/R replacement Kme3: -; K/R replacement R: -; K/R replacement Rme2a: RDM DOUBTS OF THE COPYIST ABOUT THIS PICTURE: Panel c: the table cells are qualitative activity classes (KDM, RDM, ROH, -) for peptide variants, not numbers; it is uncertain whether they count as results. / Panel b: the bar chart prints no values beside the bars, so nothing was taken from it.
(§2) MS-based screening assays with peptides and calf thymus histones were as reported; see Supplementary Table 6 for conditions. Time course assays were based on reported procedures. In brief, equal volumes of the enzyme and substrate solutions were combined to initiate the reaction; 10 µL of 2% (v/v) formic acid (HCOOH) in ddH2O or 100% methanol was added to 10 µL of the reaction mixture to quench reactions at different time points. Unless otherwise stated, time course assays were carried out in triplicate. In some cases, LC–MS was used instead of MALDI-TOF MS to avoid a MALDI matrix induced artefact with the hydroxylated product (Supplementary Fig. 16).
Data collected from time course assay(s) were used to plot the % conversion vs time (min) using GraphPad Prism5 version 5.04; the resultant slopes were used to fit a line with linear regression to the first-order region of the reaction. The resultant gradient was then converted from % product formation min^−1 to amount of peptide converted (demethylation and / or hydroxylation) in µM.
Supplementary Figure 17 Comparison of specific hydroxylation activities of KD M4E with H2a(1–20) when anal ysed by MALDI-TO F MS or LC–MS. Comparison of specific activities for KDM4E catalysed hydroxylation of H2a(1–20) when analysed with MALDI-TOF MS or LC–MS ([…] SD: 0.073 and 0.65 nmol·min−1·mg− 1 SD: 0.01 respectively). n = 3 (independent assays). See Supplementary Table 6 for assay […]
(also on this page, place not known: KDM4E H2a(1 –20) analysed MALDI -TOF LC –MS nmol·min −1·mg−1 nmol·min−1·mg−1 0.8specific activity (nmol·min-1·mg-1)) […]
[ E nz ym e] [Peptide] [2OG] [Ascorbate] [(NH4)2F e(S O4)2] [TCEP] Buffer pH7.5 Enzyme Cognate substrate (mM) (mM) (mM) (mM) (mM) (mM) [HE PE S]
Supplementary Table 6 Summary of MS assay conditions for substrate screening. These conditions […]

KDM4E [2] = biological target: T1, KDM4E; experiment: KDM, RDM and hydroxylation (+16 Da) activities of KDM4E with histone peptide variants by MS; conditions: MALDI–TOF or LC–MS, n = 3
Method: as §1, with “(−) No mass changes observed. n = 3 independent assays. See Supplementary Table 6 for conditions. TEXT PRINTED IN THE PICTURE: (c) H2a: K/R replacement K: -; K/R replacement Kme3: KDM/ROH; K/R replacement R: ROH; K/R replacement Rme2a: KDM/ROH | (c) H3: K/R replacement K: -; K/R replacement Kme3: KDM; K/R replacement R: -; K/R replacement Rme2a: RDM | (c) H4: K/R replacement K: -; K/R replacement Kme3: -; K/R replacement R: -; K/R replacement Rme2a: RDM DOUBTS OF THE COPYIST ABOUT THIS PICTURE: Panel c: the table cells are qualitative activity classes (KDM, RDM, ROH, -) for peptide variants, not numbers; it is uncertain whether they count as results. / Panel b: the bar chart prints no values beside the bars, so nothing was taken from it.” left out

KDM4E [3] = biological target: T1, KDM4E; experiment: MALDI–TOF MS demethylation/+16 Da assay, KDM4E; conditions: 60 min, 2 µM KDM4E, 10 µM peptide
Text: Fig. 2 Histone H2a fragments are KDM5 and KDM4 substrates. […] See Supplementary Table 6 and Supplementary Fig. 2 for assay conditions and quantification, respectively. […] 0-minute MS spectrum in black, 60/90-minute spectrum in red.
as §2, with “16). […]” for “16).”
Supplementary Figure 2 Histone H2a peptide fragments are substrates of KDM4s and KDM5s.
2 for representative corresponding MALDI–TOF MS traces. Bar graphs comparing % product format ion (+16 Da and demethylation) of H2a(1–20)R3me2a by (a) K DM5 A–D (after 90 minutes) and (b) KDM4A–E ( a ft er 60 minutes), analysed by MALDI– TOF MS. n = (a) 2, (b) 3 (independent assays). See Supplementary Table 6 for assay condit ions. See Figure S13 A 1 for a positive control. […]

[4] = MALDI–TOF MS, mean of n = 3, SD: H2a(1–20) 0.073, R3A 0.002, H2a(1–25) 0.044, H2a(10–29) 0.013

Row | specific activity (hydroxylation) (KDM4E [1]; Figure 3b, LC–MS (*), replicate 1) [nmol/min/mg] | specific activity (hydroxylation) (KDM4E [1]; Figure 3b, LC–MS (*), replicate 2) [nmol/min/mg] | specific activity (hydroxylation) (KDM4E [1]; Figure 3b, LC–MS (*), replicate 3) [nmol/min/mg] | extent of hydroxylation (in words) (KDM4E [1]) | specific activity (hydroxylation) (KDM4E [1]; [4]) | mass shift (KDM4E [2]) | specific activity (hydroxylation) (KDM4E [1]; Figure 3b, MALDI–TOF MS, replicate 1) [nmol/min/mg] | specific activity (hydroxylation) (KDM4E [1]; Figure 3b, MALDI–TOF MS, replicate 2) [nmol/min/mg] | +16 Da mass shift (hydroxylation) (KDM4E [2]) | +16 Da mass shift (KDM4E [3]) | Substance
1 | 0 | 0 | 0 | no activity was observed | no activity | no mass shift |  |  |  |  | Ac - SGR GKQ GGKAR AKAKT R SSR - O H [H2a(1–20)-OH, H2a(1–20) with a C-terminal carboxylic acid]
2 |  |  |  | lower | 0.35 nmol/min/mg |  | 0.3027 | 0.3905 | +16 Da mass shift |  | Ac - SGR GKQ GGKAR AKAKT R SSR AGL Q F [H2a(1–25)]
3 |  |  |  |  |  |  |  |  |  | A +16 Da mass shift occurs | H2a(1–20)R3me1: H2a(1–20) mono-methylated at Arg-3

— paper PMC11603075 (Communications Biology, 2024)
